Laboratory results from ChEMBL document CHEMBL1268934, “Design, synthesis, and subtype selectivity of 3,6-disubstituted β-carbolines at Bz/GABA(A)ergic receptors. SAR and studies directed toward agents for treatment of alcohol abuse” (Bioorg Med Chem, 2010).
pKi: −log10 of the molar value.

What was measured:
[1] = target: T1, GABA-A receptor; alpha-3/beta-3/gamma-2 (Homo sapiens, UniProt P18507+P28472+P34903); assay: Displacement of [3H]flunitrazepam from human recombinant GABAA alpha-3-beta-3-gamma-2 receptor expressed in HEK cells by liquid scintillation counting; type: cell-based, HEK293
T1 sequence (P18507 whole entry): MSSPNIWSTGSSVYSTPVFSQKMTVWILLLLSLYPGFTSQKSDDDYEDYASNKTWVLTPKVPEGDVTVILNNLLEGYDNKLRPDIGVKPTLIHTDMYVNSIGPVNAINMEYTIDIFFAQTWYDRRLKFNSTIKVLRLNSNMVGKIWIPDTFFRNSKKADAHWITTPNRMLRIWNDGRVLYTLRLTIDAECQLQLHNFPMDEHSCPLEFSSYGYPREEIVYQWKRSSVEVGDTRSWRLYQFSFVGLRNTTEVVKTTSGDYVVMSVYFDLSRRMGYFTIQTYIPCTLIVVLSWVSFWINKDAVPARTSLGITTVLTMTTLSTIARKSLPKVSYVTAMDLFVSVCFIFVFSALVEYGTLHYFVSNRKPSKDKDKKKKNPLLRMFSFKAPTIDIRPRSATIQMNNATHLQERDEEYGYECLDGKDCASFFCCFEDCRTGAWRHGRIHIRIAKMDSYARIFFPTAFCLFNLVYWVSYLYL
T1 sequence (P28472 whole entry): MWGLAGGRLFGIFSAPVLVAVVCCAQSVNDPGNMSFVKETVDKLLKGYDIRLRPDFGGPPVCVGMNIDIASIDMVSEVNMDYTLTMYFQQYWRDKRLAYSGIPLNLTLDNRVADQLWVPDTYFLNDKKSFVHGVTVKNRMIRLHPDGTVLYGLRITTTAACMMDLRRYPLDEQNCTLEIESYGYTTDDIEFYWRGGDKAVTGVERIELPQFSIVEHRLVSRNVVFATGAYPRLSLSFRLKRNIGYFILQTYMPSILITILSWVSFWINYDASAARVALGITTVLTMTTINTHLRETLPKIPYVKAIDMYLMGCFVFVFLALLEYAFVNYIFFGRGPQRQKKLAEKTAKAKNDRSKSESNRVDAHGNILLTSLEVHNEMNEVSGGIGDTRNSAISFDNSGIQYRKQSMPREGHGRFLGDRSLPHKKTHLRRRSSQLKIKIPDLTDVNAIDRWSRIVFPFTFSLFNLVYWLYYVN
T1 sequence (P34903 whole entry): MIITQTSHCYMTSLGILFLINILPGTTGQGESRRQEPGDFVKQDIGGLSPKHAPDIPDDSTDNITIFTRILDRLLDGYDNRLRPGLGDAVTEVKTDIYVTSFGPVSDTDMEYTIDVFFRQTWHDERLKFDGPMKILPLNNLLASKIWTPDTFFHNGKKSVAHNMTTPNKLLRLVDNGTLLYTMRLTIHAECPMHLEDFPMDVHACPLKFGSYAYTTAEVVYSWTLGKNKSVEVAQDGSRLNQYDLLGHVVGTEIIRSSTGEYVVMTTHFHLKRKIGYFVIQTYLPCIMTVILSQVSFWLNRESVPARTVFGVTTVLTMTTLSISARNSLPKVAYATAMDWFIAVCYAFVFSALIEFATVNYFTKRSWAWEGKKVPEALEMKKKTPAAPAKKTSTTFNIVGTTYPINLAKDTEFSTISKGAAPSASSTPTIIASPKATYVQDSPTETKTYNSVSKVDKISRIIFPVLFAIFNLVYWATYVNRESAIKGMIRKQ

[2] = target: T2, GABA-A receptor; alpha-5/beta-3/gamma-2 (Homo sapiens, UniProt P18507+P28472+P31644); assay: Displacement of [3H]flunitrazepam from human recombinant GABAA alpha-5-beta-3-gamma-2 receptor expressed in HEK cells by liquid scintillation counting; type: cell-based, HEK293
T2 sequence (P18507 whole entry): T1 sequence (P18507 whole entry)
T2 sequence (P28472 whole entry): T1 sequence (P28472 whole entry)
T2 sequence (P31644 whole entry): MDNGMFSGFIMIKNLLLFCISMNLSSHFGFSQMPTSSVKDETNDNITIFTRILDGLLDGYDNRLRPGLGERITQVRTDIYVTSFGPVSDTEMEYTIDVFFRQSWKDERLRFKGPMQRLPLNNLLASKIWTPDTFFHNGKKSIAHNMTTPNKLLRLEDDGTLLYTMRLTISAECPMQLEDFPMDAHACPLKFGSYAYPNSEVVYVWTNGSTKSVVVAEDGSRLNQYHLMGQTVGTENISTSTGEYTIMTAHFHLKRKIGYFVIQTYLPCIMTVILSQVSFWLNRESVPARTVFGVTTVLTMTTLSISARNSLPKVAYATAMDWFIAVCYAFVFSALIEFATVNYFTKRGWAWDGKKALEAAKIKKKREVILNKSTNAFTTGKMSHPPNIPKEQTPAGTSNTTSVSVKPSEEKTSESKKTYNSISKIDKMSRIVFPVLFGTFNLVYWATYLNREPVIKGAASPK

[3] = target: T3, GABA-A receptor; alpha-2/beta-3/gamma-2 (Homo sapiens, UniProt P18507+P28472+P47869); assay: Displacement of [3H]flunitrazepam from human recombinant GABAA alpha-2-beta-3-gamma-2 receptor expressed in HEK cells by liquid scintillation counting; type: cell-based, HEK293
T3 sequence (P18507 whole entry): T1 sequence (P18507 whole entry)
T3 sequence (P28472 whole entry): T1 sequence (P28472 whole entry)
T3 sequence (P47869 whole entry): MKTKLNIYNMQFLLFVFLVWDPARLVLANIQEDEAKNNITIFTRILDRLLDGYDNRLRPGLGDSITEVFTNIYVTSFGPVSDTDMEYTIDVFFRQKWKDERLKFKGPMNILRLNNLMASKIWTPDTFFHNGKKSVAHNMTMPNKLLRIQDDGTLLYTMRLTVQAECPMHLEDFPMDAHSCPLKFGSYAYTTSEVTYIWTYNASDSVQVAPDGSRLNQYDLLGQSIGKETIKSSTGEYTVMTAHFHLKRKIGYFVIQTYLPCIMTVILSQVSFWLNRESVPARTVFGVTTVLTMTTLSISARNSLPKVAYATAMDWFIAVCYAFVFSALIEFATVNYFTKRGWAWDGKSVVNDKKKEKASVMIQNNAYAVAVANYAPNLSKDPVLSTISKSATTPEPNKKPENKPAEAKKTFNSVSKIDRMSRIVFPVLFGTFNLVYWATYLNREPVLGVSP

[4] = target: GABA A receptor alpha-4/beta-3/gamma-2 (Homo sapiens, UniProt P18507+P28472+P48169); assay: Displacement of [3H]flunitrazepam from human recombinant GABAA alpha-4-beta-3-gamma-2 receptor expressed in HEK cells by liquid scintillation counting; type: cell-based, HEK293; details: for pKi: read-out: Ki; for Ki: hek293
[5] = target: GABA-A receptor; alpha-6/beta-3/gamma-2 (Homo sapiens, UniProt P18507+P28472+Q16445); assay: Displacement of [3H]flunitrazepam from human recombinant GABAA alpha-6-beta-3-gamma-2 receptor expressed in HEK cells by liquid scintillation counting; type: cell-based, HEK293
[6] = target: T4, GABA-A receptor; alpha-1/beta-3/gamma-2 (Homo sapiens, UniProt P14867+P18507+P28472); assay: Displacement of [3H]flunitrazepam from human recombinant GABAA alpha-1-beta-3-gamma-2 receptor expressed in HEK cells by liquid scintillation counting; type: cell-based, HEK293
T4 sequence (P14867 whole entry): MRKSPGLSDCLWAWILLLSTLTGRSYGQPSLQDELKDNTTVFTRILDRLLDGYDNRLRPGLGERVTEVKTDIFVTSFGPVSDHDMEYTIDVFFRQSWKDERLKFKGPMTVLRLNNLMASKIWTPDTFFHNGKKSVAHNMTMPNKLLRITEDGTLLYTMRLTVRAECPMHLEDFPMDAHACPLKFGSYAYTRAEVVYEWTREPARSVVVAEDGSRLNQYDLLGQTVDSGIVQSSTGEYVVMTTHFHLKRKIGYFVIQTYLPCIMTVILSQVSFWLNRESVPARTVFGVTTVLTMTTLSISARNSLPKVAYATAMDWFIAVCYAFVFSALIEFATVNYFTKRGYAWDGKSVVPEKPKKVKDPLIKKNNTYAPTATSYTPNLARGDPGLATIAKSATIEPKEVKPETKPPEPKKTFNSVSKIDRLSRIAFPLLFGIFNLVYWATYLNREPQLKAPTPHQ
T4 sequence (P18507 whole entry): T1 sequence (P18507 whole entry)
T4 sequence (P28472 whole entry): T1 sequence (P28472 whole entry)

[7] = target: GABA-A receptor; alpha-1/beta-3/gamma-2 (Homo sapiens) (UniProt P14867+P18507+P28472); assay: Agonist activity at human recombinant GABAA alpha-1-beta-3-gamma-2 receptor expressed in Xenopus oocytes at 1 to 10 uM by patch clamp technique; type: functional, cell-based; details: Oocyte
[8] = target: GABA-A receptor; alpha-5/beta-3/gamma-2 (Homo sapiens) (UniProt P18507+P28472+P31644); assay: Agonist activity at human recombinant GABAA alpha-5-beta-3-gamma-2 receptor expressed in Xenopus oocytes at 1 to 10 uM by patch clamp technique; type: functional, cell-based; details: Oocyte
[9] = target: GABA-A receptor; alpha-3/beta-3/gamma-2 (Homo sapiens) (UniProt P18507+P28472+P34903); assay: Agonist activity at human recombinant GABAA alpha-3-beta-3-gamma-2 receptor expressed in Xenopus oocytes at 1 to 10 uM by patch clamp technique; type: functional, cell-based; details: Oocyte

GABA A receptor alpha-4/beta-3/gamma-2, sequence (P48169 whole entry, one chain of several): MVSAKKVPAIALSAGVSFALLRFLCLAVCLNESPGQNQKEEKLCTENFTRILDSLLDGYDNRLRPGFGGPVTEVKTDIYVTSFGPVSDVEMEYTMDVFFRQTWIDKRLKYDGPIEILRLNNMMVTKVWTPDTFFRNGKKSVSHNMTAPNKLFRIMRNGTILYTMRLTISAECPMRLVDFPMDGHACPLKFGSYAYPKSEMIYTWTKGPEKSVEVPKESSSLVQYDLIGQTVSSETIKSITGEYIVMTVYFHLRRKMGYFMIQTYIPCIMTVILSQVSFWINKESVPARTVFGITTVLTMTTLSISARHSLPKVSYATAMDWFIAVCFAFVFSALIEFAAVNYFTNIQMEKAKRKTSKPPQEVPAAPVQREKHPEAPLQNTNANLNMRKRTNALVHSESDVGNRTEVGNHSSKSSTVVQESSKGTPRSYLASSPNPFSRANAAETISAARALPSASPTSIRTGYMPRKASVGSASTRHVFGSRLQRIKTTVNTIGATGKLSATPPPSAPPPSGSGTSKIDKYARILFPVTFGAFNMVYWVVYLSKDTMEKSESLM
GABA-A receptor; alpha-6/beta-3/gamma-2, sequence (Q16445 whole entry, one chain of several): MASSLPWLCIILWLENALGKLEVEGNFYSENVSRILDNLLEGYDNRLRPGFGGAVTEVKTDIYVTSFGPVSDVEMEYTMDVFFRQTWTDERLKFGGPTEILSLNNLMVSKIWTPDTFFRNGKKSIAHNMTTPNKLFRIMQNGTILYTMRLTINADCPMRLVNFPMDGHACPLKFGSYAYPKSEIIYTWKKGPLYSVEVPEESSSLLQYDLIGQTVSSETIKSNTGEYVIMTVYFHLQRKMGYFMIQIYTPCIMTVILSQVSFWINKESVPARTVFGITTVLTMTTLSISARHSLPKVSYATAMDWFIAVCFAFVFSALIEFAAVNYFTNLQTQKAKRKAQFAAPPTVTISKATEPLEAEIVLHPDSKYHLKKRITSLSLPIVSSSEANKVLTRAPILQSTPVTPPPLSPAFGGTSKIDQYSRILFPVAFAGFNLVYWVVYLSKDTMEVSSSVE

C[Si](C)(C)C#Cc1ccc2[nH]c3cnc(C(=O)OCC(F)(F)F)cc3c2c1
pKi [1]: 7.06
pKi [2]: 5.84
pKi [3]: 7.23
pKi [4]: 6.70
pKi [5]: < 5.52
pKi [6]: 7.77

CC(C)(C)OC(=O)c1cc2c(cn1)[nH]c1ccc(I)cc12
pKi [1]: 6.91
pKi [2]: 7.19
pKi [3]: 7.35
pKi [4]: < 5.40
pKi [5]: < 5.40
pKi [6]: 7.84

C[C@H](OC(=O)c1cc2c(cn1)[nH]c1ccccc12)C(F)(F)F
pKi [1]: 6.76
pKi [2]: 5.73
pKi [3]: 6.03
pKi [4]: < 5.52
pKi [5]: < 5.70
pKi [6]: 7.05

CC(C)CCOc1cc2c3ccccc3nc-2c[nH]1
pKi [1]: 5.52
pKi [2]: 5.52
pKi [3]: 5.52
pKi [5]: 5.00

O=C(OCC(F)(F)F)c1cc2c(cn1)[nH]c1ccccc12
pKi [1]: 7.38
pKi [2]: 6.90
pKi [3]: 7.61
pKi [4]: < 6.30
pKi [5]: < 5.70
pKi [6]: 8.52

CCOC(=O)c1ncn2c1CN(C)C(=O)c1cc(F)ccc1-2
Activity [7]: 99%
Activity [8]: 96%
Activity [9]: 118%

CCC(C)OC(=O)c1cc2c(cn1)[nH]c1ccccc12 (stereo not drawn)
pKi [1]: 6.94
pKi [2]: 6.67
pKi [3]: 7.22
Ki [4]: Not Active
pKi [5]: < 5.70
pKi [6]: 7.74

CC[C@H](C)OC(=O)c1cc2c(cn1)[nH]c1ccccc12
Ki [4]: Not Active
pKi [5]: < 5.70

C#Cc1ccc2[nH]c3cnc(C(=O)OC(C)(C)C)cc3c2c1
pKi [5]: 5.70
pKi [6]: 9.01

CC(C)(C)OC(=O)c1cc2c(cn1)[nH]c1ccc(-c3cccs3)cc12
pKi [1]: 6.50
pKi [2]: 5.54
pKi [3]: 6.78
Ki [4]: Not Active
pKi [6]: 7.43

CC(C)(C)OC(=O)c1cc2c(cn1)[nH]c1ccc(-c3ccco3)cc12
pKi [1]: 7.56
pKi [2]: 6.79
pKi [3]: 7.89
Ki [4]: Not Active
pKi [6]: 8.62

CC(C)(C)OC(=O)c1ccc2[nH]c3ccc(C#Cc4ccc5[nH]c6ccc(C(=O)OC(C)(C)C)cc6c5c4)cc3c2c1
pKi [1]: 7.00
pKi [2]: < 6.52
pKi [3]: 6.91
pKi [5]: < 5.40
pKi [6]: 7.52

CCCC(=O)c1cc2c(cn1)[nH]c1ccc(F)cc12
pKi [1]: 7.40
pKi [2]: 6.60
pKi [3]: 7.57
Ki [4]: Not Active
pKi [5]: < 5.60
pKi [6]: 8.43

CCC(OC(=O)c1cc2c(cn1)[nH]c1ccccc12)C(F)(F)F (stereo not drawn)
Ki [4]: Not Active
pKi [5]: < 5.70

CCOC(=O)c1ncc2[nH]c3cccc(OC(C)C)c3c2c1C
Activity [8]: 96%

CC(C)(C)OC(=O)c1cc2c(cn1)[nH]c1ccc(C#Cc3ccc4[nH]c5cnc(C(=O)OC(C)(C)C)cc5c4c3)cc12
pKi [1]: 7.00
pKi [2]: < 6.52
pKi [3]: 6.91
pKi [4]: < 6.52
pKi [5]: < 5.40
pKi [6]: 7.52

CCCCOc1cc2c(cn1)[nH]c1ccccc12
pKi [5]: 6.00

CC(C)(C)OC(=O)c1cc2c(cn1)[nH]c1ccc(-c3ccccc3)cc12
pKi [1]: 7.35
pKi [2]: 7.12
pKi [3]: 8.69
Ki [4]: Not Active
pKi [6]: 8.44

C[C@@H](OC(=O)c1cc2c(cn1)[nH]c1ccccc12)C(F)(F)F
pKi [1]: 6.34
pKi [2]: 5.73
pKi [3]: 6.46
pKi [4]: < 5.52
pKi [5]: < 5.70
pKi [6]: 7.57
